Experimental data from patent publication US20240400555A1 (Initial Therapeutics, Inc., priority 2023, published 2024).
Read-outs that look alike come from different tables or passages of the source.

System: MV-4-11 cells
Assay: Cell Viability Assay in MV-4-11 Cells
Assay type: cell-based
Details: Homo sapiens, MV4-11, 72 h
How it was run: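 MV-4-11 cells at 7,000/well in IMDM with 10% FBS, exposed to compound for 72 h. Viability by CellTiter-Glo luminescence, normalized to DMSO as 100%, fitted with a four-parameter curve.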

[1] = MV-4-11 cells, 72 h, Cell-Titer Glo, read-out: IC50

In the case of Cc1cc(Cl)cc2ccnc(N(C(=O)c3ccc(-n4nnc5cccnc54)cc3F)[C@@H]3CCCNC3)c12 [Example 615, N-(6-chloro-8-methyl-1-isoquinolyl)-2-fluoro-N-[(3R)-3-piperidyl]-4-(triazolo[4,5-b]pyridin-3-yl)benzamide], the IC50 [1] is reported as 17 nM.

CCc1csc2ccnc(N(C(=O)c3ccc(-c4nnc(C)s4)cc3F)[C@@H]3CCCNC3)c12 [Example 617, (R)—N-(3-ethylthieno[3,2-c]pyridin-4-yl)-2-fluoro-4-(5-methyl-1,3,4-thiadiazol-2-yl)-N-(piperidin-3-yl)benzamide] was tested, and the IC50 [1] was 540 nM.

In the case of Cc1cc(Cl)cc2ccnc(N(C(=O)c3ccc(-c4nnn(C)c4CO)cc3F)[C@@H]3CCCNC3)c12 [Example 618, (R)—N-(6-chloro-8-methylisoquinolin-1-yl)-2-fluoro-4-(5-(hydroxymethyl)-1-methyl-1H-1,2,3-triazol-4-yl)-N-(piperidin-3-yl)benzamide], the IC50 [1] is reported as 53 nM.

Compound COc1cc(C)c2c(N(C(=O)c3ccc(-c4cn(C)nn4)cc3F)[C@@H]3CCCNC3)nccc2c1 [Example 619, (R)-2-fluoro-N-(6-methoxy-8-methylisoquinolin-1-yl)-4-(1-methyl-1H-1,2,3-triazol-4-yl)-N-(piperidin-3-yl)benzamide] has an IC50 [1] of 38 nM.

In the case of Cc1cc(F)cc2ccnc(N(C(=O)c3ccc(-c4cn(C)nn4)cc3F)[C@H]3CCCNC3)c12 [Example 620, 2-fluoro-N-(6-fluoro-8-methyl-1-isoquinolyl)-4-(1-methyltriazol-4-yl)-N-[(3S)-3-piperidyl]benzamide], the IC50 [1] is reported as greater than 5900 nM.

Cc1cc(Cl)cc2ccnc(N(C(=O)c3ccc(-c4cn(C)nn4)cc3F)[C@H]3CCCNC3)c12 [Example 621, (S)—N-(6-chloro-8-methylisoquinolin-1-yl)-2-fluoro-4-(1-methyl-1H-1,2,3-triazol-4-yl)-N-(piperidin-3-yl)benzamide] was tested, and the IC50 [1] was 4100 nM.

Cc1nnc(-c2ccc(C(=O)N(c3nccc4cccc(C)c34)[C@@H]3CCCNC3)cn2)s1 [Example 622, (R)-6-(5-methyl-1,3,4-thiadiazol-2-yl)-N-(8-methylisoquinolin-1-yl)-N-(piperidin-3-yl)nicotinamide] was tested, and the IC50 [1] was 170 nM.

Cc1cccc2ccnc(N(C(=O)c3ccc(Nc4nccc(N5CCC[C@@H](O)C5)n4)cc3F)[C@@H]3CCCNC3)c12 [Example 623, 2-fluoro-4-((4-((R)-3-hydroxypiperidin-1-yl)pyrimidin-2-yl)amino)-N-(8-methylisoquinolin-1-yl)-N—((R)-piperidin-3-yl)benzamide] showed an IC50 [1] of 30 nM.

For Cc1cccc2ccnc(N(C(=O)c3ccc(Nc4nccc(N5CCC[C@H](O)C5)n4)cc3F)[C@@H]3CCCNC3)c12 [Example 624, 2-fluoro-4-((4-((S)-3-hydroxypiperidin-1-yl)pyrimidin-2-yl)amino)-N-(8-methylisoquinolin-1-yl)-N—((R)-piperidin-3-yl)benzamide], the IC50 [1] was 180 nM.

Compound Cc1cccc2ccnc(N(C(=O)c3ccc(Nc4nccc(N5CC[C@H](O)C5)n4)cc3F)[C@@H]3CCCNC3)c12 [Example 625, 2-fluoro-4-((4-((S)-3-hydroxypyrrolidin-1-yl)pyrimidin-2-yl)amino)-N-(8-methylisoquinolin-1-yl)-N—((R)-piperidin-3-yl)benzamide] has an IC50 [1] of 20 nM.

With Cc1ccc(F)c2ccnc(N(C(=O)c3ccc(-c4cnn5cccnc45)cc3F)[C@@H]3CCCNC3)c12 [Example 626, (R)-2-fluoro-N-(5-fluoro-8-methylisoquinolin-1-yl)-N-(piperidin-3-yl)-4-(pyrazolo[1,5-a]pyrimidin-3-yl)benzamide] the IC50 [1] was 110 nM.

For Cc1cc(F)cc2ccnc(N(C(=O)c3ccc(-c4cnn5cccnc45)cc3F)[C@@H]3CCCNC3)c12 [Example 627, (R)-2-fluoro-N-(6-fluoro-8-methylisoquinolin-1-yl)-N-(piperidin-3-yl)-4-(pyrazolo[1,5-a]pyrimidin-3-yl)benzamide], the IC50 [1] was 160 nM.

With Cc1nnc(-c2ccc(C(=O)N(c3nccc4cccc(C)c34)[C@@H]3CCCNC3)c(C)c2)s1 [Example 628, (R)-2-methyl-4-(5-methyl-1,3,4-thiadiazol-2-yl)-N-(8-methylisoquinolin-1-yl)-N-(piperidin-3-yl)benzamide] the IC50 [1] was 630 nM.

For Cc1nnc(-c2ccc(C(=O)N(c3nccc4scc(C)c34)[C@@H]3CCCNC3)cn2)s1 [Example 629, 6-(5-methyl-1,3,4-thiadiazol-2-yl)-N-(3-methylthieno[3,2-c]pyridin-4-yl)-N-[(3R)-3-piperidyl]pyridine-3-carboxamide], the IC50 [1] was 160 nM.

With COCc1cn(-c2ccc(C(=O)N(c3nccc4scc(C)c34)[C@@H]3CCCNC3)cc2)nn1 [Example 630, (R)-4-(4-(methoxymethyl)-1H-1,2,3-triazol-1-yl)-N-(3-methylthieno[3,2-c]pyridin-4-yl)-N-(piperidin-3-yl)benzamide] the IC50 [1] was 160 nM.

Compound COCc1cn(-c2ccc(C(=O)N(c3nccc4cc(Cl)cc(C)c34)[C@@H]3CCCNC3)cn2)nn1 [Example 631, (R)—N-(6-chloro-8-methylisoquinolin-1-yl)-6-(4-(methoxymethyl)-1H-1,2,3-triazol-1-yl)-N-(piperidin-3-yl)nicotinamide] has an IC50 [1] of 100 nM.

COCc1cn(-c2ccc(C(=O)N(c3nccc4cc(Cl)cc(C)c34)[C@@H]3CCCNC3)nc2)nn1 [Example 632, (R)—N-(6-chloro-8-methylisoquinolin-1-yl)-5-(4-(methoxymethyl)-1H-1,2,3-triazol-1-yl)-N-(piperidin-3-yl)picolinamide] was tested, and the IC50 [1] was 190 nM.

In the case of COCCc1nnc(-c2ccc(C(=O)N(c3nccc4scc(C)c34)[C@@H]3CCCNC3)cc2)s1 [Example 633, (R)-4-(5-(2-methoxyethyl)-1,3,4-thiadiazol-2-yl)-N-(3-methylthieno[3,2-c]pyridin-4-yl)-N-(piperidin-3-yl)benzamide], the IC50 [1] is reported as 31 nM.

With COCCc1nnc(-c2ccc(C(=O)N(c3nccc4scc(C)c34)[C@@H]3CCCNC3)c(F)c2)s1 [Example 634, (R)-2-fluoro-4-(5-(2-methoxyethyl)-1,3,4-thiadiazol-2-yl)-N-(3-methylthieno[3,2-c]pyridin-4-yl)-N-(piperidin-3-yl)benzamide] the IC50 [1] was 140 nM.

Compound Cc1csc2ccnc(N(C(=O)c3ccc(-c4nnn5c4COCC5)cc3F)[C@@H]3CCCNC3)c12 [Example 635, (R)-4-(6,7-dihydro-4H-[1,2,3]triazolo[5,1-c][1,4]oxazin-3-yl)-2-fluoro-N-(3-methylthieno[3,2-c]pyridin-4-yl)-N-(piperidin-3-yl)benzamide] has an IC50 of 100 nM.

COCCc1c(-c2ccc(C(=O)N(c3nccc4cc(Cl)cc(C)c34)[C@@H]3CCCNC3)c(F)c2)nnn1C [Example 636, (R)—N-(6-chloro-8-methylisoquinolin-1-yl)-2-fluoro-4-(5-(2-methoxyethyl)-1-methyl-1H-1,2,3-triazol-4-yl)-N-(piperidin-3-yl)benzamide] gave an IC50 [1] of 100 nM.

For COCc1c(-c2ccc(C(=O)N(c3nccc4cc(Cl)cc(C)c34)[C@@H]3CCCNC3)c(F)c2)nnn1C [Example 637, (R)—N-(6-chloro-8-methylisoquinolin-1-yl)-2-fluoro-4-(5-(methoxymethyl)-1-methyl-1H-1,2,3-triazol-4-yl)-N-(piperidin-3-yl)benzamide], the IC50 [1] was 250 nM.

COCCn1cc(-c2ccc(C(=O)N(c3nccc4scc(C)c34)[C@@H]3CCCNC3)cn2)nn1 [Example 638, (R)-6-(1-(2-methoxyethyl)-1H-1,2,3-triazol-4-yl)-N-(3-methylthieno[3,2-c]pyridin-4-yl)-N-(piperidin-3-yl)nicotinamide] was tested, and the IC50 [1] was 47 nM.
